This note sets out measurements from patent publication US12421222B2 (AUGUSTINE THERAPEUTICS, priority 2021, dated 2025).

Structures are written as SMILES.

In this test the test system is acetylated tubulin (Lys40) in HeLa cells. Kind of test: Acetylated α-tubulin measurement in vitro (immunocytochemistry). The test is classed as cell-based. As to conditions: Homo sapiens, 6 hours incubation, acetylated tubulin (Lys40) by immunocytochemistry, read-out: IC50 (Tubulin deacetylation). The method, boiled down: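 HeLa cells in serum-free medium treated 6 h at 37 °C (final DMSO 0.1–0.4%), then PFA-fixed and immunostained for acetyl-Lys40 and total α-tubulin; high-content imaging.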

Turning to `CNc1cc(C(F)(F)F)cc2c(SCC(=O)c3ccc(CNC(=O)CO)s3)nc(C)nc12` [Example 151, 2-hydroxy-N-((5-(2-((2-methyl-8-(methylamino)-6-(trifluoromethyl)quinazolin-4-yl)thio)acetyl)thiophen-2-yl)methyl)acetamide], the IC50 – broadly, the concentration that inhibits the measured activity by half – is 1000 to 3330 nM.

Regarding `O=C(CO)NCc1ccc(C(=O)CSc2nc(C(F)(F)F)nc3cccnc23)s1` [Example 152, 2-hydroxy-N-((5-(2-((2-(trifluoromethyl)pyrido[3,2-d]pyrimidin-4-yl)thio)acetyl)thiophen-2-yl)methyl)acetamide], the IC50 is at most 100 nM.

As to `Cc1nc(SCC(=O)c2ccc(CNC(=O)CO)s2)c2ncccc2n1` [Example 153, 2-hydroxy-N-((5-(2-((2-methylpyrido[3,2-d]pyrimidin-4-yl)thio)acetyl)thiophen-2-yl)methyl)acetamide], the IC50 is at most 100 nM.

On to `COc1cc2c(SCC(=O)c3ccc(CNC(=O)CO)s3)nc(C(F)(F)F)nc2cn1` [Example 154, 2-hydroxy-N-((5-(2-((6-methoxy-2-(trifluoromethyl)pyrido[3,4-d]pyrimidin-4-yl)thio)acetyl)thiophen-2-yl)methyl)acetamide], for which the concentration for half-maximal inhibition (IC50) was at most 100 nM.

Consider `O=C(CSc1nc(C(F)(F)F)nc2ncccc12)c1ccc(CN2CCCC2=O)s1` [Example 157, 1-((5-(2-((2-(trifluoromethyl)pyrido[2,3-d]pyrimidin-4-yl)thio)acetyl)thiophen-2-yl)methyl)pyrrolidin-2-one], for which the IC50 was at most 100 nM.

Regarding `COc1ccc2nc(C)nc(SCC(=O)c3ccc(CNC(=O)CO)s3)c2c1F` [Example 158, N-((5-(2-((5-fluoro-6-methoxy-2-methylquinazolin-4-yl)thio)acetyl)thiophen-2-yl)methyl)-2-hydroxyacetamide], the IC50 lay within 100 to 500 nM.

Regarding `COc1cc2c(SCC(=O)c3ccc(CN(C)C(=O)CO)s3)nc(C(F)(F)F)nc2cn1` [Example 159, 2-hydroxy-N-((5-(2-((6-methoxy-2-(trifluoromethyl)pyrido[3,4-d]pyrimidin-4-yl)thio)acetyl)thiophen-2-yl)methyl)-N-methylacetamide], the IC50 is at most 100 nM.

Consider `CCOc1cnc2nc(C)nc(SCC(=O)c3ccc(CNC(=O)CO)s3)c2c1` [Example 160, N-((5-(2-((6-ethoxy-2-methylpyrido[2,3-d]pyrimidin-4-yl)thio)acetyl)thiophen-2-yl)methyl)-2-hydroxyacetamide], for which the IC50 was at most 100 nM.

In the case of `COc1cnc2nc(C)nc(SCC(=O)c3ccc(CN4CCOCC4=O)s3)c2c1` [Example 161, 4-((5-(2-((6-methoxy-2-methylpyrido[2,3-d]pyrimidin-4-yl)thio)acetyl)thiophen-2-yl)methyl)morpholin-3-one], the IC50 was in the range of 100 to 500 nM.

With `COc1cnc2nc(C)nc(SCC(=O)c3ccc(CN(C)C(=O)CO)s3)c2c1` [Example 162, 2-hydroxy-N-((5-(2-((6-methoxy-2-methylpyrido[2,3-d]pyrimidin-4-yl)thio)acetyl)thiophen-2-yl)methyl)-N-methylacetamide], the IC50 was in the range of 100 to 500 nM.

`COCC(=O)NCc1ccc(C(=O)CSc2nc(C)nc3ncc(OC)cc23)s1` [Example 163, 2-methoxy-N-((5-(2-((6-methoxy-2-methylpyrido[2,3-d]pyrimidin-4-yl)thio)acetyl)thiophen-2-yl)methyl)acetamide]: the IC50 lay in the range of 100 to 500 nM.

Consider `COc1cnc2nc(C(F)F)nc(SCC(=O)c3ccc(CNC(=O)CO)s3)c2c1` [Example 164, N-((5-(2-((2-(difluoromethyl)-6-methoxypyrido[2,3-d]pyrimidin-4-yl)thio)acetyl)thiophen-2-yl)methyl)-2-hydroxyacetamide], for which the IC50 was at most 100 nM.

In the case of `COc1ccc2nc(C)nc(SCC(=O)c3ccc(CNC(=O)C4CCCO4)s3)c2c1` (stereo not drawn) [Example 171, N-((5-(2-((6-methoxy-2-methylquinazolin-4-yl)thio)acetyl)thiophen-2-yl)methyl)tetrahydrofuran-2-carboxamide], the IC50 lay within 100 to 500 nM.

Take `COc1ccc2nc(C)nc(SCC(=O)c3ccc(CNC(=O)C(F)F)s3)c2c1` [Example 172, 2,2-difluoro-N-((5-(2-((6-methoxy-2-methylquinazolin-4-yl)thio)acetyl)thiophen-2-yl)methyl)acetamide]: the IC50 fell in the range of 100 to 500 nM.

Consider `COc1ccc2nc(C)nc(SCC(=O)c3ccc(CNC(=O)CN)s3)c2c1` [Example 177, 2-amino-N-((5-(2-((6-methoxy-2-methylquinazolin-4-yl)thio)acetyl)thiophen-2-yl)methyl)acetamide], for which the IC50 is at most 100 nM.

On to `COc1ccc2nc(C)nc(SCC(=O)c3ccc(CNC(=O)C4CN(C)C4)s3)c2c1` [Example 178, N-((5-(2-((6-methoxy-2-methylquinazolin-4-yl)thio)acetyl)thiophen-2-yl)methyl)-1-methylazetidine-3-carboxamide], for which the concentration for half-maximal inhibition (IC50) is at most 100 nM.

Regarding `O=C(CO)NCc1ccc(C(=O)CSc2nccc3ncccc23)s1` [Example 179, N-((5-(2-((1,6-naphthyridin-5-yl)thio)acetyl)thiophen-2-yl)methyl)-2-hydroxyacetamide], the IC50 is at most 100 nM.

As to `O=C(CO)NCc1ccc(C(=O)CSc2nccc3ccncc23)s1` [Example 180, N-((5-(2-((2,7-naphthyridin-1-yl)thio)acetyl)thiophen-2-yl)methyl)-2-hydroxyacetamide], the IC50 was 100 to 500 nM.

In the case of `O=C(CO)NCc1ccc(C(=O)CSc2nccn3cncc23)s1` [Example 181, 2-hydroxy-N-((5-(2-(imidazo[1,5-a]pyrazin-8-ylthio)acetyl)thiophen-2-yl)methyl)acetamide], the IC50 was in the range of 100 to 500 nM.

For the molecule `O=C(CO)NCc1ccc(C(=O)CSc2nccn3nccc23)s1` [Example 182, 2-hydroxy-N-((5-(2-(pyrazolo[1,5-a]pyrazin-4-ylthio)acetyl)thiophen-2-yl)methyl)acetamide], the 50% inhibitory concentration (IC50) fell in the range of 500 to 1000 nM.

Take `CNCC(=O)NCc1ccc(C(=O)CSc2nc(C)nc3ccc(OC)cc23)s1` [Example 183, N-((5-(2-((6-methoxy-2-methylquinazolin-4-yl)thio)acetyl)thiophen-2-yl)methyl)-2-(methylamino)acetamide]: the IC50 lay in the range of 100 to 500 nM.

As to `COc1ccc2nc(C)nc(SCC(=O)c3ccc(CNC(=O)C4CCCN4)s3)c2c1` (stereo not drawn) [Example 184, N-((5-(2-((6-methoxy-2-methylquinazolin-4-yl)thio)acetyl)thiophen-2-yl)methyl)pyrrolidine-2-carboxamide], the IC50 lay in the range of 100 to 500 nM.

As for `COc1ccc2nc(C)nc(SCC(=O)c3ccc(CNC(=O)[C@H](C)O)s3)c2c1` [Example 185, (S)-2-hydroxy-N-((5-(2-((6-methoxy-2-methylquinazolin-4-yl)thio)acetyl)thiophen-2-yl)methyl)propanamide], the IC50 is at most 100 nM.

Consider `COc1ccc2nc(C)nc(SCC(=O)c3ccc(CNC(=O)[C@@H](C)O)s3)c2c1` [Example 186, (R)-2-hydroxy-N-((5-(2-((6-methoxy-2-methylquinazolin-4-yl)thio)acetyl)thiophen-2-yl)methyl)propanamide], for which the IC50 was at most 100 nM.

With `COc1ccc2nc(C)nc(SCC(=O)c3ccc(CNC(=O)N(C)C)s3)c2c1` [Example 189, 3-((5-(2-((6-methoxy-2-methylquinazolin-4-yl)thio)acetyl)thiophen-2-yl)methyl)-1,1-dimethylurea], the IC50 was in the range of 100 to 500 nM.

With `COc1cnc2nc(C)nc(SCC(=O)c3ccc(CNC(=O)OC(C)(C)C)s3)c2c1` [Example 190, tert-butyl ((5-(2-((6-methoxy-2-methylpyrido[2,3-d]pyrimidin-4-yl)thio)acetyl)thiophen-2-yl)methyl)carbamate], the IC50 was 100 to 500 nM.

As for `Cc1nnc(SCC(=O)c2ccc(CNC(=O)C(C)(C)C)s2)c2ccccc12` [Example 194, N-((5-(2-((4-methylphthalazin-1-yl)thio)acetyl)thiophen-2-yl)methyl)pivalamide], the IC50 fell in the range of 500 to 1000 nM.
